Laboratory results taken from patent publication US11173146B2, “Selective activators of the intermediate conductance CA2+activated K+ channel KCa3.1 and their methods of use” (The Regents of the University of California, priority 2014, dated 2021).

What was measured:
KCa2/3 channels = conditions: literature; read-out: EC50s for activation of KCa2/3 channels; cited from earlier work
[1] = system: voltage-gated sodium (NaV) channels; conditions: literature; cited from earlier work
[2] = Solubility for electrophysiology testing; type: physicochemical
[3] = rats; literature; cited from earlier work
mice = conditions: literature, cited from earlier work
dogs = conditions: intravenous 2 mg/kg, literature; cited from earlier work
KCa2 channels = conditions: literature; cited from earlier work
KCa3.1 = KCa3.1 (Homo sapiens, UniProt O15554+P0DP23); conditions: literature; cited from earlier work
KV11.1 (hERG) = target: T1, KV11.1 (hERG) (Homo sapiens, UniProt Q12809); conditions: literature; cited from earlier work
T1 construct: host or cells: HEK-293
T1 sequence (Q12809 whole entry): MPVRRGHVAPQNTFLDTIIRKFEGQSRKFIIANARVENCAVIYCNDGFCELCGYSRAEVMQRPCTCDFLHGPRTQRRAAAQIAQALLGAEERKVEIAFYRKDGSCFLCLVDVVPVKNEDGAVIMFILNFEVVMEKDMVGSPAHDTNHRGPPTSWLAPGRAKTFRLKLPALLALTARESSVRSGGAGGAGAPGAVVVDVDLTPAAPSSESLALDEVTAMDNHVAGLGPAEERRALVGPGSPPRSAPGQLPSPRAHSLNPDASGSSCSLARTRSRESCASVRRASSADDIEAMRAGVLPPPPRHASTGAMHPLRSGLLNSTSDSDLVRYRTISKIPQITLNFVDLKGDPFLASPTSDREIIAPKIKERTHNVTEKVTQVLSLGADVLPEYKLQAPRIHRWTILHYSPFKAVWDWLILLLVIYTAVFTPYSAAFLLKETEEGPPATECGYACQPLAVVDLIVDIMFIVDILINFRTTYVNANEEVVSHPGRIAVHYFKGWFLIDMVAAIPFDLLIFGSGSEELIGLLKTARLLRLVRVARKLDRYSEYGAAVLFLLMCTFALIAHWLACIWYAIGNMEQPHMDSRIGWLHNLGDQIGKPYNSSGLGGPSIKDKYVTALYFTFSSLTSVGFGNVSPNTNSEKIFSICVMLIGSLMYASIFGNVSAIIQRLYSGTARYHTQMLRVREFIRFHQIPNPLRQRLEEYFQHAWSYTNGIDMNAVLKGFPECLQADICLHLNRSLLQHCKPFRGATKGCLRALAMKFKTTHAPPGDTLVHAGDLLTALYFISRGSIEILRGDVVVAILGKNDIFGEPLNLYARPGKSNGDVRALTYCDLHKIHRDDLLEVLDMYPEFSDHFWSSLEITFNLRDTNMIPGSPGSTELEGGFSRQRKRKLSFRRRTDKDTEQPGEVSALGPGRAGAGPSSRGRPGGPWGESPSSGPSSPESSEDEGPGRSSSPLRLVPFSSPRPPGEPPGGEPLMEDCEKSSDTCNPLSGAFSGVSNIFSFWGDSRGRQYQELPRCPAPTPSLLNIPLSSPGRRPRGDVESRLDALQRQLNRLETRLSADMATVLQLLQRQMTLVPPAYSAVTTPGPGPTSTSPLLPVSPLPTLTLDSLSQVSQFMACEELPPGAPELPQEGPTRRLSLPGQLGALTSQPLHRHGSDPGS

Nc1nc2ccc(OC(F)(F)F)cc2s1 [Riluzole]
EC50 (KCa2/3 channels): 10 to 20 µM | concentrations that inhibit/affect NaV channels [1]: 1 to 50 µM

Nc1nc2c(cc(Br)c3ccccc32)s1 [SKA-87, 5-Bromooaphtho[1,2-d]thiazol-2-amine]
solubility [2]: too insoluble to be tested

Nc1nc2c(ccc3ccccc32)s1 [SKA-31, naphtho[1,2-d]thiazol-2-ylamine]
half-live [3]: 12 h | heart rate (mice; 100 mg/kg): significant bradycardia | duration of blood pressure lowering (mice; 10-30 mg/kg): 60 to 90 min | lowering of blood pressure (mice; 10-30 mg/kg): ~30 mmHg | reduction in blood pressure (dogs): −30 mmHg

O=C1Nc2c(ccc(Cl)c2Cl)C1=NO [NS309, 6,7-dichloro-1H-indole-2,3-dione 3 oxime]
EC50 (KCa2 channels): ~0.6 µM | EC50 (KCa3.1): ~0.02 µM | concentration that inhibits KV11.1 (hERG) (KV11.1 (hERG)): 1000 nM
